Measured values as given in publication PMC8468024, “PTP1B Inhibitory Secondary Metabolites from an Antarctic Fungal Strain Acremonium sp. SF-7394” (Molecules, 2021).

Biological target: T1, protein tyrosine phosphatase 1B (PTP1B) (Homo sapiens, UniProt P18031)
T1 construct: gene PTPN1
T1 sequence (P18031 1-435): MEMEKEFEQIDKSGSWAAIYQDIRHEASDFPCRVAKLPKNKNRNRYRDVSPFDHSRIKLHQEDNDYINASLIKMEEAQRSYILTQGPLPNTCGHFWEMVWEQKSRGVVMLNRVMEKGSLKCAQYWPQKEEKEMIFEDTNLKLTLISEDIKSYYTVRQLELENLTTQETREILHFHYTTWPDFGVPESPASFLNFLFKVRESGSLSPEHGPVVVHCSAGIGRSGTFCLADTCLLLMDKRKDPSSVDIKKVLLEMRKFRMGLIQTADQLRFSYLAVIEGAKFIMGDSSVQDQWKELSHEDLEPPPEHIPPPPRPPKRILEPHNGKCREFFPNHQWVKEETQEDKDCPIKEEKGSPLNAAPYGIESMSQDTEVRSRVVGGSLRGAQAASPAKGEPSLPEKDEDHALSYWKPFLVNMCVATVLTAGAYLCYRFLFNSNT
Assay: p-NPP hydrolysis assay with recombinant enzyme; Lineweaver–Burk kinetics
Type: biochemical

CC(C)C[C@@H]1C[C@H](C)[C@@H]2CC[C@H](C)c3ccc(CO)c1c32 [compound 1, acrepseudoterin]
IC50: 22.8 ± 1.1 µM
